According to ChEMBL document CHEMBL1129089, “N-(substituted-phenyl) piperazines: antagonists with high binding and functional selectivity for dopamine D4 receptors” (Bioorg Med Chem Lett, 1996):

Legend:
D(2) dopamine receptor = D(2) dopamine receptor (Homo sapiens, UniProt P14416); experiment: Binding affinity at cloned human Dopamine receptor D2 expressed in CHO cells, using [125I]iodosulpiride as radioligand; type: cell-based
D(4) dopamine receptor = biological target: T1, D(4) dopamine receptor (Homo sapiens, UniProt P21917); experiment: Binding affinity at cloned human Dopamine receptor D4 expressed in HEK 293 cells, using [3H]nemonapride as radioligand; type: cell-based, HEK293
T1 sequence (P21917 whole entry): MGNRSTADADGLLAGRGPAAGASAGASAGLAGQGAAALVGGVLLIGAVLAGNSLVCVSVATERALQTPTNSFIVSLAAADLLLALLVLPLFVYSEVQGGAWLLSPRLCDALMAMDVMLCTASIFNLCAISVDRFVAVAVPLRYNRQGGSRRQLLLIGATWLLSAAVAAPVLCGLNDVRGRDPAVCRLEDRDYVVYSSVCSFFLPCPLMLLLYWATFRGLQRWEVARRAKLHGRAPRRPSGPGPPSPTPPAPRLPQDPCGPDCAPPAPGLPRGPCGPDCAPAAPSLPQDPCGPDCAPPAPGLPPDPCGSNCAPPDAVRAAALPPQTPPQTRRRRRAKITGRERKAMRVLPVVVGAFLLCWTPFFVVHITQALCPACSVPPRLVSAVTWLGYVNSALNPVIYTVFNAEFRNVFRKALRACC

[1] = biological target: Dopamine receptors; D2 & D4 (Homo sapiens) (UniProt P14416+P21917); experiment: Selectivity of D2 receptor over D4 receptor; type: protein assay
Dopamine receptors; D2 & D4 (Homo sapiens), sequence (P14416 whole entry, looked up, one chain of several): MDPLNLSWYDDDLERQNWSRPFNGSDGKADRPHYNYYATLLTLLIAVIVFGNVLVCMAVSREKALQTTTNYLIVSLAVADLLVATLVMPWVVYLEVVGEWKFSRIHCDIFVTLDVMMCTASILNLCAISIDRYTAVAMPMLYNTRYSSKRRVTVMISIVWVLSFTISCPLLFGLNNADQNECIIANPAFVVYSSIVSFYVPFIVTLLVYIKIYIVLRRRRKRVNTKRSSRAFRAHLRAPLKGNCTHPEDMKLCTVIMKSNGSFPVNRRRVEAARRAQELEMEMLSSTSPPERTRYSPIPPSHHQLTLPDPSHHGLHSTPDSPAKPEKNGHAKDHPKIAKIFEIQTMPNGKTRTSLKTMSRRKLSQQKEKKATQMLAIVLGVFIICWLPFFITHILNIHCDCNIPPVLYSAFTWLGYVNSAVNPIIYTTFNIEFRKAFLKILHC

D(2) dopamine receptor, sequence (P14416 whole entry): as the sequence (P14416 whole entry, looked up, one chain of several) above

Row | SMILES | Ki (D(2) dopamine receptor) | Ki (D(4) dopamine receptor) | Selectivity [1]
1 | CC(C)(C)C(=O)NCCCCN1CCN(c2ccc(Cl)cc2)CC1 | 2510 nM | 12.6 nM | 200
2 | CC(C)(C)C(=O)NCCCCN1CCN(c2ccc(Br)cc2)CC1 | 1580 nM | 31.6 nM | 50
3 | CC1CN(CCCCNC(=O)C(C)(C)C)CCN1c1ccc(Cl)cc1 (stereo not drawn) | 1580 nM | 63.1 nM | 
4 | CC(C)(C)C(=O)NCCCCN1CCN(c2ccc(F)cc2)CC1 | 2000 nM | 126 nM | 15
5 | CC1(C(=O)NCCCCN2CCN(c3ccc(Cl)cc3)CC2)CCCCC1 | 1000 nM | 10 nM | 100
6 | COc1cc(Cl)ccc1N1CCN(CCCCNC(=O)C(C)(C)C)CC1 | 158 nM | 15.8 nM | 10
7 | COc1ccccc1N1CCN(CCCCNC(=O)C(C)(C)C)CC1 | 20 nM | 12.6 nM | 2
8 | CC(C)(C)C(=O)NCCCCN1CCN(c2ccccc2)CC1 | 794 nM | 316 nM | 3
9 | CC(C)C(=O)NCCCCN1CCN(c2ccc(Cl)cc2)CC1 | 2000 nM | 126 nM | 16
10 | CC(C)(C)C(=O)NCCCCN1CCN(c2ccc(C(F)(F)F)cc2)CC1 | 3980 nM | 50.1 nM | 80
11 | CC(=O)NCCCCN1CCN(c2ccc(Cl)cc2)CC1 | 1580 nM | 1260 nM | 1
12 | O=C(NCCCCN1CCN(c2ccc(Cl)cc2)CC1)C12CC3CC(CC(C3)C1)C2 | 631 nM | 20 nM | 30
13 | CCCC(C)(C)C(=O)NCCN1CCN(c2ccc(Cl)cc2)CC1 | 2510 nM | 7.94 nM | 320
14 | O=C(NCCCCN1CCN(c2ccc(Cl)cc2)CC1)c1ccccc1 | 398 nM | 158 nM | 3
15 | CC(C)(C)C(=O)NCCN1CCN(c2ccc(Cl)cc2)CC1 | 2510 nM | 25.1 nM | 100
16 | CCC(C)(C)C(=O)NCCCCN1CCN(c2ccc(Cl)cc2)CC1 | 1000 nM | 15.8 nM | 63
17 | CCC(C)(C)C(=O)NCCN1CCN(c2ccc(Cl)cc2)CC1 |  | 7.94 nM | 320
18 | CC(C)(C)C(=O)NCCCCCN1CCN(c2ccc(Cl)cc2)CC1 | 398 nM | 126 nM | 3
19 | COc1ccc(N2CCN(CCCCNC(=O)C(C)(C)C)CC2)cc1 | > 10000 nM | 316 nM | > 30
20 | CC(C)(C)C(=O)NCCCCN1CCN2c3ccc(Cl)cc3CCC2C1 (stereo not drawn) | 398 nM | 63.1 nM | 
21 | CC(C)(C)C(=O)NCCCCN1CCN(c2ccccc2Cl)CC1 | 63.1 nM | 79.4 nM | 1
22 | CCCC(C)(C)C(=O)NCCCCN1CCN(c2ccc(Cl)cc2)CC1 | 1580 nM | 12.6 nM | 125
23 | CC(C)(C)C(=O)NCCCCN1CCN(c2cccc(Cl)c2)CC1 | 251 nM | 100 nM | 3
24 | CCCCC(C)(C)C(=O)NCCN1CCN(c2ccc(Cl)cc2)CC1 | 1580 nM | 31.6 nM | 50
25 | CC(C)(C)C(=O)NCCCN1CCN(c2ccc(Cl)cc2)CC1 | > 10000 nM | 200 nM | > 50
26 | CC1(C(=O)NCCN2CCN(c3ccc(Cl)cc3)CC2)CCCCC1 | 794 nM | 7.94 nM | 100
27 | O=C(NCCN1CCN(c2ccc(Cl)cc2)CC1)C12CC3CC(CC(C3)C1)C2 | 398 nM | 5.01 nM | 80
